Test results published in ChEMBL document CHEMBL1201862, “PubChem BioAssay data set” (2004).
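Tested at 5 concentrations; 48 h exposure; 96-well plates; endpoints linearly interpolated, else capped at highest concentration. GI50: concentration for 50% inhibition of growth.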 Active and inactive are the calls of the source. No stated cut-off is given here; in the data, active = GI50 up to about 1.1 µM and inactive = higher. Peptide text beside a SMILES is read from it. * marks the point of attachment. Cbz = O=C(OCc1ccccc1)*; NHNH2 = NN*

Tests used:
Experiment in all cases: inhibition of tumour cell growth, NCI panel, 48 h
[1] = system: NCI-H460
[2] = system: M14
[3] = system: CAKI-1
[4] = system: UACC-257
[5] = system: BT-549
[6] = system: MOLT-4
[7] = system: PC-3
[8] = system: SF-539
[9] = system: HOP-92
[10] = system: Hs-578T
[11] = system: OVCAR-8
[12] = system: K562
[13] = system: MDA-MB-231
[14] = system: SK-MEL-2
[15] = system: SK-MEL-5
[16] = system: SN12C
[17] = system: SK-OV-3
[18] = system: Malme-3M
[19] = system: HL-60

SMILES	GI50 [1]	GI50 [2]	GI50 [3]	GI50 [4]	GI50 [5]	GI50 [6]	GI50 [7]	GI50 [8]	GI50 [9]	GI50 [10]	GI50 [11]	GI50 [12]	GI50 [13]	GI50 [14]	GI50 [15]	GI50 [16]	GI50 [17]	GI50 [18]	GI50 [19]
COc1ccc(C(=O)/C=C2\c3ccccc3C(=O)N2C)cc1	36.1 µM (inactive)	48.6 µM (inactive)	36.4 µM (inactive)	31.3 µM (inactive)	68.1 µM (inactive)	58.7 µM (inactive)	89.1 µM (inactive)	64 µM (inactive)	24.5 µM (inactive)	90.6 µM (inactive)	64.4 µM (inactive)	44.1 µM (inactive)	> 100 µM (inactive)	> 100 µM (inactive)	63.4 µM (inactive)	58.5 µM (inactive)	74.8 µM (inactive)	31.7 µM (inactive)	–
COC(=O)CC(c1cn(S(=O)(=O)c2ccc(C)cc2)c2ccccc12)C1C[C@@H](C(=O)OC)N(C(=O)OC(C)(C)C)C1=O (stereo partly specified)	26.6 µM (inactive)	> 100 µM (inactive)	31.7 µM (inactive)	> 100 µM (inactive)	> 100 µM (inactive)	3.91 µM (inactive)	47.6 µM (inactive)	7.66 µM (inactive)	–	> 100 µM (inactive)	43.4 µM (inactive)	54.1 µM (inactive)	22.5 µM (inactive)	44.3 µM (inactive)	> 100 µM (inactive)	32.1 µM (inactive)	–	83.4 µM (inactive)	> 100 µM (inactive)
CN1CN(c2ccccc2)C2(CCN(C3Nc4ccccc4O3)CC2)C1=O (stereo unspecified)	17.7 µM (inactive)	18.5 µM (inactive)	25.5 µM (inactive)	16.7 µM (inactive)	15.7 µM (inactive)	9.57 µM (inactive)	16.7 µM (inactive)	15.1 µM (inactive)	–	12.9 µM (inactive)	26.2 µM (inactive)	18.5 µM (inactive)	20.1 µM (inactive)	13.6 µM (inactive)	17.7 µM (inactive)	19.2 µM (inactive)	19.6 µM (inactive)	17.3 µM (inactive)	12.5 µM (inactive)
Cc1ccc(/N=N/c2c(O)ccc3ccccc23)cc1	–	> 100 µM (inactive)	> 100 µM (inactive)	> 100 µM (inactive)	> 100 µM (inactive)	46.8 µM (inactive)	83 µM (inactive)	–	> 100 µM (inactive)	> 100 µM (inactive)	> 100 µM (inactive)	> 10 µM (inactive)	> 100 µM (inactive)	> 100 µM (inactive)	> 100 µM (inactive)	> 100 µM (inactive)	> 100 µM (inactive)	> 100 µM (inactive)	–
C[C@]12CC[C@H]3[C@@H](CC=C4C[C@@H](O)CC[C@@]43C)[C@@H]1C/C(=C\c1cccnc1)[C@@H]2O	31.6 µM (inactive)	> 100 µM (inactive)	–	39.2 µM (inactive)	13.5 µM (inactive)	–	30.7 µM (inactive)	14 µM (inactive)	11.9 µM (inactive)	6.21 µM (inactive)	6.89 µM (inactive)	–	13.2 µM (inactive)	30.8 µM (inactive)	–	9.44 µM (inactive)	10.8 µM (inactive)	> 100 µM (inactive)	–
C/C(=C\CBr)CCC(Br)C(C)(C)Br (stereo unspecified)	> 100 µM (inactive)	> 100 µM (inactive)	–	> 100 µM (inactive)	> 100 µM (inactive)	> 100 µM (inactive)	> 100 µM (inactive)	> 100 µM (inactive)	> 100 µM (inactive)	> 100 µM (inactive)	> 100 µM (inactive)	> 100 µM (inactive)	> 100 µM (inactive)	> 100 µM (inactive)	> 100 µM (inactive)	> 100 µM (inactive)	> 100 µM (inactive)	> 100 µM (inactive)	> 100 µM (inactive)
C[C@H](CCCOS(C)(=O)=O)[C@H]1CC[C@H]2[C@@H]3CC[C@@H]4C[C@H](OS(C)(=O)=O)CC[C@]4(C)[C@H]3CC[C@]12C	30.5 µM (inactive)	90.4 µM (inactive)	11.6 µM (inactive)	46.7 µM (inactive)	36.8 µM (inactive)	> 100 µM (inactive)	20.6 µM (inactive)	21 µM (inactive)	0.118 µM (active)	24.4 µM (inactive)	14.5 µM (inactive)	> 100 µM (inactive)	13.8 µM (inactive)	60.1 µM (inactive)	29.8 µM (inactive)	16.7 µM (inactive)	20.3 µM (inactive)	15.2 µM (inactive)	–
c1ccc2c(c1)Sc1ccccc1N2CCCN1c2ccccc2Sc2ccccc21	39.9 µM (inactive)	50.6 µM (inactive)	> 100 µM (inactive)	> 100 µM (inactive)	> 100 µM (inactive)	76.4 µM (inactive)	> 100 µM (inactive)	> 100 µM (inactive)	> 100 µM (inactive)	41.2 µM (inactive)	54.2 µM (inactive)	> 100 µM (inactive)	> 100 µM (inactive)	–	> 100 µM (inactive)	91.6 µM (inactive)	> 100 µM (inactive)	> 100 µM (inactive)	–
Cn1c(=O)c2nc(CCCCC(=O)O)[nH]c2n(C)c1=O	> 100 µM (inactive)	> 100 µM (inactive)	> 100 µM (inactive)	> 100 µM (inactive)	> 100 µM (inactive)	> 100 µM (inactive)	> 100 µM (inactive)	–	> 100 µM (inactive)	68.5 µM (inactive)	> 100 µM (inactive)	–	> 100 µM (inactive)	> 100 µM (inactive)	> 100 µM (inactive)	> 100 µM (inactive)	–	> 100 µM (inactive)	–
COC(=O)[C@@H]1Cc2ccc(OC)c(c2)OCCC(=O)N1	–	> 100 µM (inactive)	> 100 µM (inactive)	> 100 µM (inactive)	> 100 µM (inactive)	> 100 µM (inactive)	> 100 µM (inactive)	–	–	> 100 µM (inactive)	> 100 µM (inactive)	> 100 µM (inactive)	> 100 µM (inactive)	> 100 µM (inactive)	> 100 µM (inactive)	–	> 100 µM (inactive)	> 100 µM (inactive)	–
CCc1n[nH]c(=O)n1/N=C/c1ccccc1O	–	> 100 µM (inactive)	–	> 100 µM (inactive)	> 100 µM (inactive)	> 100 µM (inactive)	> 100 µM (inactive)	> 100 µM (inactive)	> 100 µM (inactive)	28 µM (inactive)	> 100 µM (inactive)	> 100 µM (inactive)	> 100 µM (inactive)	> 100 µM (inactive)	> 100 µM (inactive)	> 100 µM (inactive)	> 100 µM (inactive)	–	–
CCN(/C=C1/C(=O)C(c2ccccc2)N(c2ccccc2)C1=O)CC (stereo unspecified)	> 10 µM (inactive)	> 10 µM (inactive)	> 10 µM (inactive)	> 10 µM (inactive)	> 10 µM (inactive)	> 10 µM (inactive)	> 10 µM (inactive)	> 10 µM (inactive)	–	> 10 µM (inactive)	> 10 µM (inactive)	> 10 µM (inactive)	> 10 µM (inactive)	> 10 µM (inactive)	> 10 µM (inactive)	> 10 µM (inactive)	> 10 µM (inactive)	> 10 µM (inactive)	> 10 µM (inactive)
CC(=O)N[C@@H](Cc1ccc(O)cn1)C(=O)NCc1ccc2c(c1)OCO2	> 100 µM (inactive)	> 100 µM (inactive)	> 100 µM (inactive)	> 100 µM (inactive)	> 100 µM (inactive)	> 100 µM (inactive)	> 100 µM (inactive)	> 100 µM (inactive)	> 100 µM (inactive)	> 100 µM (inactive)	> 100 µM (inactive)	> 100 µM (inactive)	–	> 100 µM (inactive)	> 100 µM (inactive)	> 100 µM (inactive)	> 100 µM (inactive)	> 100 µM (inactive)	> 100 µM (inactive)
Cc1ccc(S(=O)(=O)NC(=O)NCCC(=O)O)cc1	> 100 µM (inactive)	> 100 µM (inactive)	–	> 100 µM (inactive)	25.8 µM (inactive)	> 100 µM (inactive)	> 100 µM (inactive)	> 100 µM (inactive)	> 100 µM (inactive)	> 100 µM (inactive)	> 100 µM (inactive)	> 100 µM (inactive)	> 100 µM (inactive)	> 100 µM (inactive)	> 100 µM (inactive)	> 100 µM (inactive)	> 100 µM (inactive)	> 100 µM (inactive)	> 100 µM (inactive)
COC(=O)CC(NC(=O)OCc1ccccc1)C(=O)NC(CC(=O)OC)C(=O)NC(CC(=O)OC)C(=O)NC(CC(=O)OC)C(=O)NC(CC(=O)OC)C(=O)NC(CC(=O)OC)C(=O)NN (stereo unspecified) (Cbz-D(OMe)D(OMe)D(OMe)D(OMe)D(OMe)D(OMe)-NHNH2; configuration not given here)	> 100 µM (inactive)	> 100 µM (inactive)	–	> 100 µM (inactive)	> 100 µM (inactive)	> 100 µM (inactive)	> 100 µM (inactive)	> 100 µM (inactive)	> 100 µM (inactive)	> 100 µM (inactive)	> 100 µM (inactive)	> 100 µM (inactive)	> 100 µM (inactive)	> 100 µM (inactive)	> 100 µM (inactive)	> 100 µM (inactive)	> 100 µM (inactive)	–	> 100 µM (inactive)
